Assays:
[1] = system: SK-MEL-2
[2] = system: MDA-MB-435
[3] = system: HCT-116
[4] = system: NSCL cancer subpanel; experiment: NCI 60 subpanel summary; format: cell-based, human
[5] = molecular target: c-Met (Homo sapiens, UniProt P08581); experiment: c-Met kinase inhibitory assay (HTRF); format: biochemical
[6] = system: UACC-257
[7] = system: A498
[8] = system: Colon cancer subpanel; experiment: NCI 60 subpanel summary; format: cell-based, human
[9] = system: HCT-15
[10] = system: Ovarian cancer subpanel; experiment: NCI 60 subpanel summary; format: cell-based, human
[11] = system: OVCAR-3
[12] = system: SR
[13] = system: NCI-H23
[14] = system: SF-295
[15] = system: SK-MEL-28
[16] = system: CNS cancer subpanel; experiment: NCI 60 subpanel summary; format: cell-based, human
[17] = molecular target: T1, VEGFR-2 (Homo sapiens, UniProt P35968); experiment: VEGFR-2 kinase inhibitory assay (Kinase-Glo MAX); format: biochemical
T1 construct: purchased
T1 sequence (P35968 20-1356): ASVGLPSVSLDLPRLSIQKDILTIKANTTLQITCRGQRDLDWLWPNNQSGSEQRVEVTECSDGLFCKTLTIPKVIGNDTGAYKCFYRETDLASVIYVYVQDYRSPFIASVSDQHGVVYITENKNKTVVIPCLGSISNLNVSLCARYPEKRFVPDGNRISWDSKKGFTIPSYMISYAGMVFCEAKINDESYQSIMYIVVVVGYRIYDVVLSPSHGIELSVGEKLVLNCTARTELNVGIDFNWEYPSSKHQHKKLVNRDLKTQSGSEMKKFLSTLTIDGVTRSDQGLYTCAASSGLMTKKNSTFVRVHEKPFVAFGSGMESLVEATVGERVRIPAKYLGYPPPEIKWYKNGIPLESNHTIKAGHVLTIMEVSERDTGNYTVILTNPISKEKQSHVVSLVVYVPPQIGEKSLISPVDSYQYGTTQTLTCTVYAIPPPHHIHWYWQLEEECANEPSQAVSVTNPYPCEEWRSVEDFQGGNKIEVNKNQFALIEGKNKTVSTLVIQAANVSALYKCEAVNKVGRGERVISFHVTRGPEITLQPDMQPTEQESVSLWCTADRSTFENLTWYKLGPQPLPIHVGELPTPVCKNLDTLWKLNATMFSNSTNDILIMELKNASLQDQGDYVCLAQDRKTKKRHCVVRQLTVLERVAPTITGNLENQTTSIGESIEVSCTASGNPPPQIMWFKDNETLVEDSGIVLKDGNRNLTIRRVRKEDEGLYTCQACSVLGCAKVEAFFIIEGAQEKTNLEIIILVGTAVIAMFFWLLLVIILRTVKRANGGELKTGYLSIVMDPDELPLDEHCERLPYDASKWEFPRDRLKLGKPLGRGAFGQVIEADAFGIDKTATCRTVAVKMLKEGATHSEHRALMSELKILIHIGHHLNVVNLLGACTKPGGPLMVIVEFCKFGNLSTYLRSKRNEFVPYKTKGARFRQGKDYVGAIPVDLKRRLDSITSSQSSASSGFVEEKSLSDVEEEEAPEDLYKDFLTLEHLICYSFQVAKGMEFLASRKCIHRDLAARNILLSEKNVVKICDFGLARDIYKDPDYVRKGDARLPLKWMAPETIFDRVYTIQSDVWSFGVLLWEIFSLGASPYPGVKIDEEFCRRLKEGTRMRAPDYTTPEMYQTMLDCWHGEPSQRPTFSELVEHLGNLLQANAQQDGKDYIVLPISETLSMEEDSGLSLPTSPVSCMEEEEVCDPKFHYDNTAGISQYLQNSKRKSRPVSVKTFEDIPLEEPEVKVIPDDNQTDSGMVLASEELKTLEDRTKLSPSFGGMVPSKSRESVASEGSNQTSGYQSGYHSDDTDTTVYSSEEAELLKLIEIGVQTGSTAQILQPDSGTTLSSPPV

[18] = system: PC-3
[19] = system: KM12
[20] = system: SK-OV-3; details: single dose 10 μM; ovarian carcinoma
[21] = system: OVCAR-5
[22] = system: MOLT-4
[23] = molecular target: Pim-1 (Homo sapiens, UniProt P11309); experiment: PIM kinase inhibitory assay (ADP-Glo); format: biochemical
Chain of Pim-1 (P11309 whole entry): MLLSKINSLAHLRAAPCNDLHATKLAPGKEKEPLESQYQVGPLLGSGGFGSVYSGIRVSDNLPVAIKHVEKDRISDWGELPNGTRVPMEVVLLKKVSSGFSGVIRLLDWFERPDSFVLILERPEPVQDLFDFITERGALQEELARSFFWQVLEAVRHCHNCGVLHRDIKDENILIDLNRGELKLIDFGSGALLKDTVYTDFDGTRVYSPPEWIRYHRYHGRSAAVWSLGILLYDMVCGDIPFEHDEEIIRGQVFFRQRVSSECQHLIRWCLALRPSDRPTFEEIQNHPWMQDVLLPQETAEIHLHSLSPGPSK
Procedure: (§1) Luminescence was measured using the microplate reader.
against the PIM enzyme using the ADP‐Glo™ Kinase Assay.
The protocol of the experiment depends on the dilution of the enzyme, substrate, ATP, and inhibitors in kinase buffer. Then, 1 μl of the inhibitor (5% DMSO), 2 μl of the enzyme, and 2 μl
temperature for 60 minutes. Then, 5 μl of ADP‐Glo™ Reagent was added and incubated at room temperature for 40 minutes. 10 μl of the kinase detection reagent was added and incubated at room temperature for 30 minutes. Then, luminescence (integration time 0.5–1 second) was recorded according to the manufacturer’s instructions.

[24] = system: UACC-62; details: Homo sapiens, UACC-62
[25] = system: NCI-H522
[26] = system: U251
[27] = system: T-47D
[28] = system: A549/ATCC
[29] = system: M14
[30] = system: OVCAR-4
[31] = system: EKVX
[32] = molecular target: B-Raf (V600E) (Homo sapiens, UniProt P15056, V600E); experiment: B-Raf kinase inhibitory assay (Kinase-Glo Max); format: biochemical
Chain of B-Raf (V600E) (P15056 whole entry V600E): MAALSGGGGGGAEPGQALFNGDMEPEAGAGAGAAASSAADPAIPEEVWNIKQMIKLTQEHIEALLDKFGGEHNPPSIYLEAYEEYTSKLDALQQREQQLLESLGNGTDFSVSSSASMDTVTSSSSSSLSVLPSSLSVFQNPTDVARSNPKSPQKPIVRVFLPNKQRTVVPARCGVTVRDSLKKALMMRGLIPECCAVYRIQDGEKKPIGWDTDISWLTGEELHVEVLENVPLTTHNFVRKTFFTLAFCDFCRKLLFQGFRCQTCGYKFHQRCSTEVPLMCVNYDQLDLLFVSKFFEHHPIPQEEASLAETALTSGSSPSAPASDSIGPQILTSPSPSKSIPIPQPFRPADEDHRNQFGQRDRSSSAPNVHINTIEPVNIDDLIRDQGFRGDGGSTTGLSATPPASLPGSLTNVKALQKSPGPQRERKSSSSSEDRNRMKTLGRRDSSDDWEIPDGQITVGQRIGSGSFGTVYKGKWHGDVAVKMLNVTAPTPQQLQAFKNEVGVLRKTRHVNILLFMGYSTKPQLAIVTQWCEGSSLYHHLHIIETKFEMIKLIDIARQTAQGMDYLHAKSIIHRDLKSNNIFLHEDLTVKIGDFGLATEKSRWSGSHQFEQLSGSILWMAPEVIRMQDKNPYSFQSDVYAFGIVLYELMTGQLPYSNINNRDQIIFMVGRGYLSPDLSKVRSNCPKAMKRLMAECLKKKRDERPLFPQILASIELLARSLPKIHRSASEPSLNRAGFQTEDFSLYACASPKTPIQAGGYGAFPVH
Procedure: B-Raf Kinase inhibitory assay
All samples and controls were tested in
as §1

[33] = system: SF-539
[34] = system: NCI-H226
[35] = single dose 10 μM, colon cancer
[36] = Homo sapiens, subpanel mean graph midpoint, read-out: MG-MID (GI50)
[37] = full panel MG-MID / subpanel MG-MID
[38] = single dose 10 μM, ovarian carcinoma
[39] = single dose 10 μM, non-small lung carcinoma

Chain of c-Met (P08581 25-1390): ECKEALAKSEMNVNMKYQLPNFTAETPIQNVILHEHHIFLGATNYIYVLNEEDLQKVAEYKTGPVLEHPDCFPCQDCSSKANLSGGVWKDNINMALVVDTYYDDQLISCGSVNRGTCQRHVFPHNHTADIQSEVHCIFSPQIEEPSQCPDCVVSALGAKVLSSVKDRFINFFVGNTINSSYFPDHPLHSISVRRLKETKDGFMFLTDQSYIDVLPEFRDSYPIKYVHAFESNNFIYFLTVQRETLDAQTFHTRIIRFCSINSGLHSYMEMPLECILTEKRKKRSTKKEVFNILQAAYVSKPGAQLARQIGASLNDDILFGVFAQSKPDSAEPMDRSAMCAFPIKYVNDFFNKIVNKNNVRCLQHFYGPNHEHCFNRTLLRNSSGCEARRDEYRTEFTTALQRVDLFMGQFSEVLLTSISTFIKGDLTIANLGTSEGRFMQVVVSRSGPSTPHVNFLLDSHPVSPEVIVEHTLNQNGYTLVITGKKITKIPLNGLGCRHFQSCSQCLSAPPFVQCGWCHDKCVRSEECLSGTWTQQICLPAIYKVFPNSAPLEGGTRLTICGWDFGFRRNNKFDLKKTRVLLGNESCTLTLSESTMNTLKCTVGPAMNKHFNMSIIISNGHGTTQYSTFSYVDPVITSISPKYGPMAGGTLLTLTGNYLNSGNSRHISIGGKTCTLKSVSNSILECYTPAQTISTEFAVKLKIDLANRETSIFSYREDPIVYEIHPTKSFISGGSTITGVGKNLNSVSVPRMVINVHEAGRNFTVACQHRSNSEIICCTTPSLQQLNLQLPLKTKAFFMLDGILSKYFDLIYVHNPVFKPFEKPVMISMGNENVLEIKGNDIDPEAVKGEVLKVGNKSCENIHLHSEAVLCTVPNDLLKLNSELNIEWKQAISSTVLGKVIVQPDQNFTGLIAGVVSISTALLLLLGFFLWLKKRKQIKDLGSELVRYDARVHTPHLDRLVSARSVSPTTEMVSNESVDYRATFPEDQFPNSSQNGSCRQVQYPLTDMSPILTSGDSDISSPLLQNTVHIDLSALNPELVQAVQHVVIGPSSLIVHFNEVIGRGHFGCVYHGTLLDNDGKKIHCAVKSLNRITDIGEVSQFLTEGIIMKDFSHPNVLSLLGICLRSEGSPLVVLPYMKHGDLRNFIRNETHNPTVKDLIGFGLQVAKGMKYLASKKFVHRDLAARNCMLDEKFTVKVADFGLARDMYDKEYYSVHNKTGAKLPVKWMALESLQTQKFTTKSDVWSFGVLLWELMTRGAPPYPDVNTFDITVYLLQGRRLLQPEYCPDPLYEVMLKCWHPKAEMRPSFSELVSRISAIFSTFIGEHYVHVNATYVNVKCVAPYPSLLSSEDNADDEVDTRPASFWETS

Work on `c1ccc(-n2cc(C3CC(c4nc5ccccc5[nH]4)=NN3)c(-c3cc4ccccc4o3)n2)cc1` (centres unmarked) [3d, 3-(Benzofuran-2-yl)-4-(3-(1H-benzo[d]imidazol-2-yl)-4,5-dihydro-1H-pyrazol-5-yl)-1-phenyl-1H-pyrazole] yielded a GI50 ([1]; Homo sapiens, SK-MEL-2) of 2.53 µM, a GI% ([1]; single dose 10 μM, melanoma) of 99.44% and a GI50 ([2]; Homo sapiens, MDA-MB-435) of 4.24 µM. It also gave a GI% ([2]; single dose 10 μM, melanoma) of 83.49%, a GI50 ([3]; Homo sapiens, HCT-116) of 5.46 µM and a GI% [3, 35] of 76.76%. The GI50 [4, 36] was 4.02 µM, the Selectivity index [4, 37] was 1.04 and the IC50 [5] was 0.911 µM. For the same molecule, the GI50 ([6]; Homo sapiens, UACC-257) was 6.24 µM, the GI% ([6]; single dose 10 μM, melanoma) was 79.15% and the GI50 ([7]; Homo sapiens, A498) was 12.7 µM. It also gave a GI% ([7]; single dose 10 μM, renal carcinoma) of 54.33%, a GI50 [8, 36] of 5.02 µM and a Selectivity index [8, 37] of 0.83. For the same molecule, the GI50 ([9]; Homo sapiens, HCT-15) was 3.18 µM, the GI% [9, 35] was 83.02% and the GI50 [10, 36] was 4.32 µM. For the same molecule, the Selectivity index [10, 37] was 0.97, the GI50 ([11]; Homo sapiens, OVCAR-3) was 4.91 µM and the GI% [11, 38] was 81.63%. The GI50 ([12]; Homo sapiens, SR) was 3.15 µM, the GI% ([12]; single dose 10 μM, leukemia) was 91.17% and the GI50 ([13]; Homo sapiens, NCI-H23) was 3.69 µM. The GI% [13, 39] was 78.78%, the GI50 ([14]; Homo sapiens, SF-295) was 2.59 µM and the GI% ([14]; single dose 10 μM, CNS cancer) was 84.73%. The GI50 ([15]; Homo sapiens, SK-MEL-28) was 4.58 µM, the GI% ([15]; single dose 10 μM, melanoma) was 80.99% and the GI50 [16, 36] was 3.55 µM. For the same molecule, the Selectivity index [16, 37] was 1.18, the IC50 [17] was 0.619 µM and the “times more effective at suppressing VEGFR-2 than sorafenib” value ([17]; ratio of IC50 values) was 4.1. For the same molecule, the GI50 ([18]; Homo sapiens, PC-3) was 3.47 µM, the GI% ([18]; single dose 10 μM, prostate carcinoma) was 91.14% and the GI50 ([19]; Homo sapiens, KM12) was 5.55 µM. For the same molecule, the GI% [19, 35] was 91.86%, the GI% [20] was 62.21% and the GI50 ([21]; Homo sapiens, OVCAR-5) was 5.52 µM. For the same molecule, the GI% [21, 38] was 66.23%, the GI50 ([22]; Homo sapiens, MOLT-4) was 4.13 µM and the GI% ([22]; single dose 10 μM, leukemia) was 88.75%. The IC50 [23] was 2.37 µM, the “times less sensitive, Pim-1, than to staurosporine” value ([23]; ratio of IC50 values) was 4.9 and the GI50 [24] was 1.84 µM. The GI50 ([25]; Homo sapiens, NCI-H522) was 3.48 µM, the GI% [25, 39] was 96.77% and the GI50 ([26]; Homo sapiens, U-251) was 3.72 µM. The GI% ([26]; single dose 10 μM, CNS cancer) was 85.69%, the GI50 ([27]; Homo sapiens, T47D) was 3.12 µM and the GI% ([27]; single dose 10 μM, breast carcinoma) was 88.48%. It also gave a GI50 ([28]; Homo sapiens, A549) of 3.86 µM, a GI% [28, 39] of 87.82% and a GI50 ([29]; Homo sapiens, M14) of 3.22 µM. It also gave a GI% ([29]; single dose 10 μM, melanoma) of 83.05%, a GI50 ([30]; Homo sapiens, OVCAR-4) of 3.51 µM and a GI% [30, 38] of 66.52%. The GI50 ([31]; Homo sapiens, EKVX) was 2.69 µM, the GI% [31, 39] was 78.25% and the IC50 [32] was 0.175 µM. For the same molecule, the “times less sensitive, B-Raf (V600E), than to vemurafenib” value ([32]; ratio of IC50 values) was 2.8, the GI50 ([33]; Homo sapiens, SF-539) was 3.97 µM and the GI% ([33]; single dose 10 μM, CNS cancer) was 85.47%. It also gave a GI50 ([34]; Homo sapiens, NCI-H226) of 6.62 µM and a GI% [34, 39] of 34.35%.

Reference: publication PMC12486440, “Design, synthesis, and in silico studies of new benzofuran–pyrazole hybrids as multi-kinase inhibitors with potential antiproliferative activity” (RSC Advances, 2025)
